# Assay results published in PMC4387272, “Pharmacokinetic, pharmacodynamic and biomarker evaluation of transforming growth factor-β receptor I kinase inhibitor, galunisertib, in phase 1 study in patients with advanced cancer” (Investigational new drugs, 2014).
# Read-outs that look alike come from different tables or passages of the source.
# Columns and labels:
# [1] = system: pSMAD2 in peripheral blood mononuclear cells (PBMCs); assay: pSMAD2 ELISA in peripheral blood mononuclear cells of treated patients; assay type: in vivo, Human; conditions: for inhibition at 160 mg: Homo sapiens, PBMC, 160 mg/day cohort (Part A)
# Description: pSMAD2 in peripheral blood mononuclear cells (PBMCs) were assessed by a specific ELISA as previously described, in which a rabbit polyclonal antibody recognizing pSMAD2 was used. Total SMAD2 was also assessed and used to normalize the expression of pSMAD2.
# A power model was fitted to PK parameter estimates Cmax and AUC(0–24) to assess the extent of dose proportionality. Clinical benefit in this study has been defined as a patient with either a complete response (CR), partial response (PR), and stable disease (SD) ≥6 cycles. MAIP results from plasma samples taken at baseline were compared between patients completing >6 cycles and ≤6 cycles using ANOVA. The analysis included controlling the false discovery rate to 30 % using the Benjamini-Hochberg method. Boxplots showing the distributions at baseline of the potentially prognostic markers are provided. Observed TGF-β-stimulated pSMAD2 (pSMAD2^+) in PBMCs was normalized by TGF-β-stimulated tSMAD2 [(tSMAD2^+) ^0.6[9, 10]] prior to determining the minimum normalized pSMAD2^+ and calculating percentage inhibition post-baseline for each patient. Baseline and minimum post-baseline values for each patient together with maximum percentage inhibition are presented on a line and scatter plot for each patient in Cohort 3 and summary statistics by time point provided from a standard mixed effects regression model, fitting log normalized pSMAD2^+ to the fixed effects of log baseline normalized pSMAD2^+, nominal time point, dose and their interaction and patient as a random effect.
# Using an ELISA to detect changes of pSMAD2 in isolated PBMCs as a PD response marker, we observed changes after galunisertib administration. […] In 11 of the 14 patients, pSMAD2 inhibition was assessed at the observed maximum concentration for galunisertib about 2–6 h after administration on Day 14 of the first cycle. In 6 of the 11 patients, pSMAD2 levels were reduced in relationship to drug concentration, while in the remaining 5 patients, there was no relationship at the expected Cmax (Fig. 2a). […] Once the drug was stopped after 14 days of administration, pSMAD2 changes were assessed for the next 3 days in 2 patients, one in Cohort 1 and 1 in Cohort 3 (Fig. 2c and d). The pSMAD2 inhibition was still present although drug levels were low or undetectable. The mean of the observed percentage inhibition of normalized pSMAD2^+ from Cycle 1 Day 1 and Day 12 for Cohort 3 together with the estimated means from the model are provided in Table 2.
# [2] = Safety and blood counts in first-in-human dose study; assay type: in vivo
# From the text: An amendment was introduced to assess T cell subsets in Part B and Part C.
# [3] = patients with advanced cancer, first-in-human dose study
structure (smiles),measurement,setting,value
Cc1cccc(-c2nn3c(c2-c2ccnc4ccc(C(N)=O)cc24)CCC3)n1 [galunisertib],patients with a reduction in pSMAD2 in PBMCs,"[1]; Cohort 3 (160 mg/day), 9 of 14 patients, first 14 days of treatment",64%
same,mean percentage inhibition of pSMAD2,"[1]; Cohort 3, end of 14 days of treatment, PBMCs",approximately 40%
same,patients with pSMAD2 levels reduced in relationship to drug concentration,"[1]; Cohort 3, of 11 patients assessed about 2–6 h after administration on Day 14 of first cycle",6 patients
same,inhibition at 160 mg,"[1]; Day 1, 0.5 h, PBMCs, mixed-effects model, read-out: Fitted Percentage Inhibition of Normalized pSMAD2",27%
same,inhibition at 160 mg,"[1]; Day 1, 0.5 h, PBMCs, read-out: Observed Percentage Inhibition of Normalized pSMAD2",26%
same,inhibition at 160 mg,"[1]; Day 1, 4 h, PBMCs, mixed-effects model, read-out: Fitted Percentage Inhibition of Normalized pSMAD2",5%
same,inhibition at 160 mg,"[1]; Day 1, 4 h, PBMCs, read-out: Observed Percentage Inhibition of Normalized pSMAD2",5%
same,inhibition at 160 mg,"[1]; Day 1, 6 h, PBMCs, mixed-effects model, read-out: Fitted Percentage Inhibition of Normalized pSMAD2",-10%
same,inhibition at 160 mg,"[1]; Day 1, 6 h, PBMCs, read-out: Observed Percentage Inhibition of Normalized pSMAD2",-10%
same,inhibition at 160 mg,"[1]; Day 12 or 15 post dose (2, 3, 4, 6 h), PBMCs, mixed-effects model, read-out: Fitted Percentage Inhibition of Normalized pSMAD2",34%
same,inhibition at 160 mg,"[1]; Day 12 or 15 post dose (2, 3, 4, 6 h), PBMCs, read-out: Observed Percentage Inhibition of Normalized pSMAD2",39%
same,pSMAD2 inhibition after drug was stopped,"[1]; next 3 days after 14 days of administration, 2 patients, drug levels low or undetectable",still present
same,lymphocyte counts,"[2]; Part B, combination of galunisertib and lomustine, some patients",reduction in lymphocyte counts
same,"bone marrow toxicity (neutrophils, platelets, lymphocyte counts)","[2]; Part C, monotherapy 300 mg/day, patients receiving more than 2 cycles",no comparable bone marrow toxicity
same,cardiac adverse events,[2]; [3],no cardiac adverse events
same,toxicity / safety profile,[2]; [3],favorable safety profile
same,toxicity / safety profile,"[2]; patients with advanced cancer, first-in-human dose study, listed as Galunisertib",favorable toxicity profile
